# Results taken from paper PMC11374673, “Discovery of isoquinoline sulfonamides as allosteric gyrase inhibitors with activity against fluoroquinolone-resistant bacteria” (Nature Chemistry, 2024).
# Values joined by “and” are separate entries in the source; they are usually repeats but may differ in a detail not shown here. Equal entries are not always repeated. “Also recorded” adds a separate entry of the source.
# What was measured:
# E. coli W3110 = assay: Checkerboard assay with PMBN; details: for Checkerboard well reading (growth): single wells (triplicate); for Checkerboard well reading (growth), Average values: average of 3 wells
# HEK293T = assay: Cytotoxicity assay (MTT); type: cell-based, human; details: for MTT data (raw readout): HEK293T; for IC50: 24 h, MTT
# Procedure, shortened: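 HEK293T cells, maintained at 37 °C and 7% CO2 in Dulbecco’s modified Eagle medium with GlutaMax, antibiotics and serum, were plated in clear 96-well plates in 100 µl medium containing 1% fetal bovine serum and left 24 h to attach. After 24 h compound exposure, MTT (0.40 mg ml^−1) was added for 2 h. Formazan was dissolved in 100 µl DMSO and absorbance measured at 570 nm. Background-corrected IC50 values came from variable-slope non-linear fits.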
compound,measurement,setting,value
O=S(=O)(NC[C@H]1CC[C@@H](c2ccc(-c3ccc(F)nc3)cc2)N1)c1cccc2cnccc12 [LEI-801],Checkerboard well reading (growth),E. coli W3110; LEI-801 12.5 µM + PMBN 4 µM,0.1572
same,"Checkerboard well reading (growth), Average values",E. coli W3110; LEI-801 12.5 µM + PMBN 8 µM,0.1397
same,"Checkerboard well reading (growth), Average values",E. coli W3110; LEI-801 12.5 µM + PMBN 16 µM,0.1401
same,"Checkerboard well reading (growth), Average values",E. coli W3110; LEI-801 12.5 µM + PMBN 32 µM,0.1472
same,"Checkerboard well reading (growth), Average values",E. coli W3110; LEI-801 25 µM + PMBN 0 µM,0.6592
same,Checkerboard well reading (growth),E. coli W3110; LEI-801 25 µM + PMBN 0 µM,0.7013 and 0.6648 and 0.6113
same,"Checkerboard well reading (growth), Average values",E. coli W3110; LEI-801 25 µM + PMBN 0.5 µM,0.5495
same,Checkerboard well reading (growth),E. coli W3110; LEI-801 25 µM + PMBN 0.5 µM,0.5605 and 0.5428 and 0.5453
same,"Checkerboard well reading (growth), Average values",E. coli W3110; LEI-801 25 µM + PMBN 1 µM,0.1537
same,Checkerboard well reading (growth),E. coli W3110; LEI-801 25 µM + PMBN 1 µM,0.153 and 0.1529 and 0.1554
same,"Checkerboard well reading (growth), Average values",E. coli W3110; LEI-801 25 µM + PMBN 2 µM,0.155
same,Checkerboard well reading (growth),E. coli W3110; LEI-801 25 µM + PMBN 2 µM,0.1518 and 0.1536 and 0.1596
same,"Checkerboard well reading (growth), Average values",E. coli W3110; LEI-801 25 µM + PMBN 4 µM,0.1451
same,Checkerboard well reading (growth),E. coli W3110; LEI-801 25 µM + PMBN 4 µM,0.1525 and 0.1428 and 0.1399
same,"Checkerboard well reading (growth), Average values",E. coli W3110; LEI-801 25 µM + PMBN 8 µM,0.1413
same,Checkerboard well reading (growth),E. coli W3110; LEI-801 25 µM + PMBN 8 µM,0.1394 and 0.1427 and 0.1418
same,"Checkerboard well reading (growth), Average values",E. coli W3110; LEI-801 25 µM + PMBN 16 µM,0.1492
same,Checkerboard well reading (growth),E. coli W3110; LEI-801 25 µM + PMBN 16 µM,0.1486 and 0.1511 and 0.148
same,"Checkerboard well reading (growth), Average values",E. coli W3110; LEI-801 25 µM + PMBN 32 µM,0.1528
same,Checkerboard well reading (growth),E. coli W3110; LEI-801 25 µM + PMBN 32 µM,0.1518 and 0.1502 and 0.1563
same,"Checkerboard well reading (growth), Average values",E. coli W3110; LEI-801 50 µM + PMBN 0 µM,0.5341
same,Checkerboard well reading (growth),E. coli W3110; LEI-801 50 µM + PMBN 0 µM,0.4876 and 0.5464 and 0.5682
same,"Checkerboard well reading (growth), Average values",E. coli W3110; LEI-801 50 µM + PMBN 0.5 µM,0.1519
same,Checkerboard well reading (growth),E. coli W3110; LEI-801 50 µM + PMBN 0.5 µM,0.1573 and 0.1437 and 0.1549
same,"Checkerboard well reading (growth), Average values",E. coli W3110; LEI-801 50 µM + PMBN 1 µM,0.152
same,Checkerboard well reading (growth),E. coli W3110; LEI-801 50 µM + PMBN 1 µM,0.1515 and 0.1507 and 0.1538
same,"Checkerboard well reading (growth), Average values",E. coli W3110; LEI-801 50 µM + PMBN 2 µM,0.1516
same,Checkerboard well reading (growth),E. coli W3110; LEI-801 50 µM + PMBN 2 µM,0.15 and 0.1487 and 0.1561
same,"Checkerboard well reading (growth), Average values",E. coli W3110; LEI-801 50 µM + PMBN 4 µM,0.1474
same,Checkerboard well reading (growth),E. coli W3110; LEI-801 50 µM + PMBN 4 µM,0.1453 and 0.1491 and 0.1477
same,"Checkerboard well reading (growth), Average values",E. coli W3110; LEI-801 50 µM + PMBN 8 µM,0.1653
same,Checkerboard well reading (growth),E. coli W3110; LEI-801 50 µM + PMBN 8 µM,0.1998 and 0.1452 and 0.1509
same,"Checkerboard well reading (growth), Average values",E. coli W3110; LEI-801 50 µM + PMBN 16 µM,0.1513
same,Checkerboard well reading (growth),E. coli W3110; LEI-801 50 µM + PMBN 16 µM,0.1499 and 0.152 and 0.1519
same,"Checkerboard well reading (growth), Average values",E. coli W3110; LEI-801 50 µM + PMBN 32 µM,0.1507
same,Checkerboard well reading (growth),E. coli W3110; LEI-801 50 µM + PMBN 32 µM,0.1485 and 0.1492 and 0.1546
same,MIC E. coli + 8 μM PMBN,E. coli W3110; LPS disruption (pharmacological),6.25 µM
same,synergy with PMBN,E. coli W3110; checkerboard,potentiates; also recorded: Clear synergy
same,MSC,"E. coli W3110; checkerboard with PMBN, E. coli W3110",6.25 µM
same,MTT data (raw readout),"HEK293T; 0.023 uM, experiment n = 1, technical triplicates, listed as LEI-801 (99)",1.090 and 1.041 and 1.057
same,MTT data (raw readout),"HEK293T; 0.023 uM, experiment n = 2, technical triplicates, listed as LEI-801 (99)",0.858 and 0.977 and 0.938
same,MTT data (raw readout),"HEK293T; 0.068 uM, experiment n = 1, technical triplicates, listed as LEI-801 (99)",1.154 and 1.082 and 1.072
same,MTT data (raw readout),"HEK293T; 0.068 uM, experiment n = 2, technical triplicates, listed as LEI-801 (99)",1.027 and 1.034 and 1.015
same,MTT data (raw readout),"HEK293T; 0.21 uM, experiment n = 1, technical triplicates, listed as LEI-801 (99)",1.127 and 1.121 and 1.094
same,MTT data (raw readout),"HEK293T; 0.21 uM, experiment n = 2, technical triplicates, listed as LEI-801 (99)",0.913 and 0.892 and 0.944
same,MTT data (raw readout),"HEK293T; 0.62 uM, experiment n = 1, technical triplicates, listed as LEI-801 (99)",1.141 and 1.092 and 0.930
same,MTT data (raw readout),"HEK293T; 0.62 uM, experiment n = 2, technical triplicates, listed as LEI-801 (99)",1.083 and 0.946 and 1.064
same,MTT data (raw readout),"HEK293T; 1.85 uM, experiment n = 1, technical triplicates, listed as LEI-801 (99)",1.167 and 1.005 and 0.915
same,MTT data (raw readout),"HEK293T; 5.6 uM, experiment n = 1, technical triplicates, listed as LEI-801 (99)",0.937 and 1.019 and 1.040
same,MTT data (raw readout),"HEK293T; 5.6 uM, experiment n = 2, technical triplicates, listed as LEI-801 (99)",1.075 and 0.764 and 0.931
same,MTT data (raw readout),"HEK293T; 16.7 uM, experiment n = 1, technical triplicates, listed as LEI-801 (99)",0.838 and 0.818 and 0.874
same,MTT data (raw readout),"HEK293T; 16.7 uM, experiment n = 2, technical triplicates, listed as LEI-801 (99)",0.745 and 0.746 and 0.735
same,MTT data (raw readout),"HEK293T; 50 uM, experiment n = 1, technical triplicates, listed as LEI-801 (99)",0.494 and 0.473 and 0.487
same,MTT data (raw readout),"HEK293T; 50 uM, experiment n = 2, technical triplicates, listed as LEI-801 (99)",0.506 and 0.491 and 0.495
same,IC50,"HEK293T; Homo sapiens, HEK-293T",51 µM
same,IC50,HEK293T; listed as LEI-801 (99),> 50 µM
